Laboratory results published in US20080039461A1, “Treatment of pain by inhibition of p38 map kinase” (priority 2002, published 2008).
Where two headings read alike, the source gives them in different places.

Experiments:
[1] = tested on: NMDA-induced hyperalgesia; assay: hyperalgesia induced by intrathecal NMDA; format: in vivo, rat; conditions: IT NMDA 0.3 μg; MK801 10 μg, IT SD 3-60 μg, IT SB 1-30 μg, SA 10 μg
Source text: Male Sprague-Dawley rats (300-350 g) were implanted under isoflurane anesthesia with lumbar polyethylene (PE-10) catheters according to a modified method originally described in Physiol. Behav. 17, 1031 (1976). […] IT saline and 5% DMSO alone had no effect on behavior or protein expression/phosphorylation.

[2] = biological target: T1, p38 MAPK (Homo sapiens, UniProt Q16539); assay: p38 MAPK phosphorylation assay (similar to Kumar); format: biochemical
T1 construct: expressed in transfected cells; host or cells: HeLa (kinase immunoprecipitated from lysates of transfected, stimulated cells)
T1 sequence (Q16539 whole entry): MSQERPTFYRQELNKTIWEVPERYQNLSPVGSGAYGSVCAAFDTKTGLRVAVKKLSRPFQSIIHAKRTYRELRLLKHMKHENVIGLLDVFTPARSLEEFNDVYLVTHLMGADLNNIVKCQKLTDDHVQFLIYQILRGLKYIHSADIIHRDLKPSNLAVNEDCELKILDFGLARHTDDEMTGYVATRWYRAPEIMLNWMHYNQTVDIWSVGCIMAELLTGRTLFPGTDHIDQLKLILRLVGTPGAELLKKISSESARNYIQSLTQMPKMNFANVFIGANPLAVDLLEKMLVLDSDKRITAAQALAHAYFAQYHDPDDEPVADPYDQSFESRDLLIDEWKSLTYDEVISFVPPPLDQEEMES
Procedure: Alternative assays involving in vitro analysis of potential inhibitors include those where cells (HeLa) transfected with DNA coding for relevant kinases can be activated with substances such as sorbitol, IL-1, TNF, or PMA (phorbol myristate acetate). After immunoprecipitation of cell lysates, equal aliquots of immune complexes of the kinases are pre-incubated for an adequate time with a specific concentration of the potential inhibitor followed by addition of kinase substrate buffer mix containing labeled ATP and GST-ATF2 or MBP. After incubation, kinase reactions are ceased by the addition of SDS loading buffer. Phosphorylated substrate is resolved through SDS-PAGE and visualized and quantitated in a phosphorimager. Both p38 regulation, in terms of phosphorylation, and IC50 values can be determined by quantitation. […] Res. Commun. […]

[3] = tested on: mechanical hyperalgesia; assay: mechanical hyperalgesia, Randall Selitto test, intraplantar carrageenan; format: in vivo, Sprague Dawley Rats
Procedure: The effects of p38 MAP kinase inhibitors on Mechanical and Thermal Hyperalgesia were evaluated as follows. Sprague Dawley Rats were evaluated in carageenan induced models whereby an intraplantar injection of carageenan was made into the left paw. At approximately 2 and 4 hour post carageenan, the left hind limb of each rat was assessed for the development of thermal hyperalgesia relative to a p38 MAP kinase inhibitor (SC), vehicle, indomethacin, and the vehicle for indomethacin. Indomethacin, a known nonsteroidal analgesic, was used as a control reference in this study. Assessment of mechanical and thermal hyperalgesia was accomplished through the use of a Randall Selitto Analgesiometer and the Hargreaves Plantar Device, respectively. Approximately 10 minutes after intraperitoneal dosing, or 30 minutes following oral indomethacin treatment, each animal was lightly anaesthetized (isoflurane in oxygen) and an intraplantar injection of carageenan was made into the left paw. Animals were allowed to recover from anesthesia. Mechanical hyperalgesia was tested using the Randall-Selittlo test. Randall, L. & Selitto, J., Arch Int Pharmacodyn (1957) 110:409-419. The carageenan model was established as set forth above. […] In the same animals treated with SC, the paw withdrawal threshold increased from a pre dose threshold of 159±8 g to 177±17 g, 2 hours post-carrageenan. […] As set forth in Example 2 above, Sprague Dawley rats were evaluated in the intraplantar carageenan model. The animals were administered the p38 MAP kinase inhibitor SA, vehicle, indomethacin, and the vehicle for indomethacin. After dosing, the animals were assessed for the development of mechanical hyperalgesia and thermal hyperalgesia using the Randall Selitto Analgesiometer and the Hargreaves Plantar Device, respectively.

[4] = tested on: thermal hyperalgesia; assay: thermal hyperalgesia, Plantar test (Hargreaves), intraplantar carrageenan; format: in vivo, Sprague Dawley Rats
Procedure: The effects of p38 MAP kinase inhibitors on Mechanical and Thermal Hyperalgesia were evaluated as follows. Sprague Dawley Rats were evaluated in carageenan induced models whereby an intraplantar injection of carageenan was made into the left paw. At approximately 2 and 4 hour post carageenan, the left hind limb of each rat was assessed for the development of thermal hyperalgesia relative to a p38 MAP kinase inhibitor (SC), vehicle, indomethacin, and the vehicle for indomethacin. Indomethacin, a known nonsteroidal analgesic, was used as a control reference in this study. Assessment of mechanical and thermal hyperalgesia was accomplished through the use of a Randall Selitto Analgesiometer and the Hargreaves Plantar Device, respectively. Approximately 10 minutes after intraperitoneal dosing, or 30 minutes following oral indomethacin treatment, each animal was lightly anaesthetized (isoflurane in oxygen) and an intraplantar injection of carageenan was made into the left paw. Animals were allowed to recover from anesthesia. As set forth above in the carageenan model, the effect of SC was evaluated with respect to attenuation of the development of thermal hyperalgesia at either of the 2 and 4 hours post-carrageenan time points tested. As above with respect to mechanical hyperalgesia, observation of statistically significant thermal hyperalgesia development was made at both the 2 and 4 hour periods (8.2±1.5 s; P≦0.05 and 7.0±1.5 s; P≦0.01, respectively), compared to vehicle pre dose measurements (12.7±1.0 s). […] As set forth in Example 2 above, Sprague Dawley rats were evaluated in the intraplantar carageenan model. The animals were administered the p38 MAP kinase inhibitor SA, vehicle, indomethacin, and the vehicle for indomethacin. After dosing, the animals were assessed for the development of mechanical hyperalgesia and thermal hyperalgesia using the Randall Selitto Analgesiometer and the Hargreaves Plantar Device, respectively.

[5] = tested on: carrageenan-induced thermal hyperalgesia; assay: carrageenan-induced thermal hyperalgesia (Hargreaves-type device); format: in vivo, rat; conditions: intravenous administration, pre injury
Procedure: Hyperalgesia was induced in the rat's right hindpaw by intraplantar injection of carrageenan (2 mg in 0.1 ml of a […] solution (weight/volume) in physiological saline). To assess the thermally evoked paw withdrawal time, a device modeled after that described by Hargreaves (1988) was used. See Hargreaves K, Dubner R, Brown F, Flores C, Joris J. A new and sensitive method for measuring thermal nociception in cutaneous hyperalgesia, Pain, 32, 77-88 (1988). The device consisted of a glass surface on top of which the rats were placed. The glass surface was heated by a focused projection bulb below the glass surface. The first sign of discomfort is usually expressed as an attempt to sit up and lick the forepaws by the experimental animal. This response indicates a threshold of pain under the predetermined conditions. Dancing and jumping about by an undrugged animal is an indicator of unbearable pain; whereas drugged animals more commonly withdraw the hind paws and keep them close to their abdomen. A timer was actuated with the light source and latency defined as the time required for the paw to be withdrawn from the glass surface. See Dirig D M, Isakson P C, and Yaksh T L. J Pharmacol Exp Ther., 285, 1031-8 (1998).

[6] = tested on: discomfort of a dental procedure; assay: pain associated with a dental procedure; format: in vivo; conditions: approximately 1 hours before the procedure; SF 40 mg/kg, SG 20 mg/kg
Procedure: A subject scheduled for a dental procedure, the filling of a cavity in a tooth, is administered approximately 40 mg/kg of the p38 MAP kinase inhibitor SF approximately 1 hours before the procedure is to begin. No other analgesics or anesthetics are administered.
A subject scheduled for a dental procedure, the filling of a cavity in a tooth, is administered approximately 20 mg/kg of the p38 MAP kinase inhibitor SG approximately 1 hours before the procedure is to begin. No other analgesics or anesthetics are administered.

[7] = tested on: post-activity related discomfort; assay: pain associated with athletic endeavor; format: in vivo; conditions: before a long distance race; SH 50 mg/kg, SI 20 mg/kg, SM 40 mg/kg
Procedure: A subject preparing for an athletic endeavor, the running of a long distance race, is administered approximately 50 mg/kg of SH approximately 30 minutes before the endeavor is to begin. No other analgesics or anesthetics are administered. The athlete participates in and completes the endeavor.
A subject preparing for an athletic endeavor, the running of a long distance race, is administered approximately 20 mg/kg of SI approximately 1 hours before the endeavor is to begin. No other analgesics or anesthetics are administered. The athlete participates in and completes the endeavor.
A subject preparing for an athletic endeavor, the running of a long distance race, is administered approximately 40 mg/kg of SM approximately 1 hours before the endeavor is to begin. No other analgesics or anesthetics are administered. The athlete participates in and completes the endeavor.

[8] = tested on: recovery from the procedure; assay: adjunct to opioid anesthesia for Cesarean section; format: in vivo; conditions: in opioid solution, subarachnoid; SL 60 mg/kg, SJ 630 mg/kg, SK 50 mg/kg
Procedure: A person scheduled for a Cesarean section is prepared according to standard guidelines. A subarachnoid block is performed in the sitting position, following the administration of 1-2 liters of crystalloid solution. Skin infiltration with local anaesthetic is performed at the L2-3 or L3-L4 interspace. A spinal needle introducer is used to facilitate insertion of the needle into the patient. The needle is introduced into the epidural space and perforates the dura. The emergence of cerebrospinal fluid indicates proper placement of the needle. An opiod solution containing approximately 60 mg/kg of SL is administered and injected slowly of a ten to fifteen second time interval. […] The needle is then removed and resulting wound is dressed. The Cesarean section proceeds according to a standard protocol.
A person scheduled for a Cesarean section is prepared according to standard guidelines. A subarachnoid block is performed in the sitting position, following the administration of 1-2 liters of crystalloid solution. Skin infiltration with local anaesthetic is performed at the L2-3 or L3-L4 interspace. A spinal needle introducer is used to facilitate insertion of the needle into the patient. The needle is introduced into the epidural space and perforates the dura. The emergence of cerebrospinal fluid indicates proper placement of the needle. An opiod solution containing approximately 630 mg/kg of SJ is administered and injected slowly of a ten to fifteen second time interval. […] The needle is then removed and resulting wound is dressed. The Cesarean section proceeds according to a standard protocol.
A person scheduled for a Cesarean section is prepared according to standard guidelines. A subarachnoid block is performed in the sitting position, following the administration of 1-2 liters of crystalloid solution. Skin infiltration with local anaesthetic is performed at the L2-3 or L3-L4 interspace. A spinal needle introducer is used to facilitate insertion of the needle into the patient. The needle is introduced into the epidural space and perforates the dura. […]

[9] = assay similar to the phosphorylation assay (Kumar), read-out: p38 MAPK activity, relative IC50 value

## C[C@]12N[C@H](Cc3ccccc31)c1ccccc12 [MK801]
[1]
  hyperalgesia induced by IT NMDA: reversed

## COc1cc2c(cc1C(=O)N1CC(C)C(Cc3ccc(F)cc3)CC1C)c(C(=O)C(=O)N(C)C)cn2C (stereo not drawn) [SA]
[2]; [9]
  IC50: < 5 nM
[3]; Example 3, oral, 30 minutes prior to carrageenan, 4 hours
  paw withdrawal threshold: 159 ± 19 g
[4]; Example 3, oral, lower dose levels
  attenuation of thermal hyperalgesia: no significant attenuation
[4]; Example 3, oral, 4 hours
  withdrawal latency: 11.1 ± 1.4 s

## C[C@@H]1CN(Cc2ccc(F)cc2)[C@@H](C)CN1C(=O)c1cc2c(C(=O)C(=O)N(C)C)cn(C)c2cc1Cl [SC]
[3]; Example 2, SC intraperitoneal, 2 hours post-carrageenan
  paw withdrawal threshold: 177 ± 17 g
[3]; Example 2, SC intraperitoneal, 4 hour post-carrageenan
  paw withdrawal threshold: 153 ± 14 g
[4]; Example 2, first of two dose levels (not given), 2 hours
  withdrawal latency: 11.5 ± 1.1 s
[4]; Example 2, first of two dose levels (not given), 4 hours
  withdrawal latency: 10.2 ± 1.5 s
[4]; Example 2, second of two dose levels (not given), 2 hours
  withdrawal latency: 11.6 ± 1.1 s
[4]; Example 2, second of two dose levels (not given), 4 hours
  withdrawal latency: 10.2 ± 0.9 s

## COc1cc2[nH]cc(C(=O)C(=O)N(C)C)c2cc1C(=O)N1CC(C)N(Cc2ccc(F)cc2)CC1C (stereo not drawn) [SE]
[2]; [9]
  IC50: < 5 nM
[5]
  carageenan induced hyperalgesia: Attenuation of the carageenan induced hyperalgesia

## COc1cc2c(cc1C(=O)N1CCC(Cc3ccc(F)cc3)CC1)c(C(=O)C(=O)O)cn2C [SF]
[2]; [9]
  IC50: < 5 nM
[6]
  discomfort during dental procedure: reduced level of discomfort

## COc1cc2c(cc1C(=O)N1CCC(Cc3ccc(F)cc3)CC1)c(C(=O)C(=O)N1CCN(C)CC1)cn2C [SG]
[2]; [9]
  IC50: < 5 nM
[6]
  discomfort during dental procedure: reduced level of discomfort

## Cn1cc(C(=O)C(=O)N2CCCC2)c2cc(C(=O)N3CCC(Cc4ccc(F)cc4)CC3)c(Cl)cc21 [SH]
[2]; [9]
  IC50: < 5 nM
[7]
  post-activity related discomfort: reduced level of post-activity related discomfort

## COCn1cc(C(=O)C(=O)N(C)C)c2cc(C(=O)N3C[C@H](C)N(Cc4ccc(F)cc4)C[C@H]3C)c(OC)cc21 [SI]
[2]
  IC50: < 5 nM
[7]
  post-activity related discomfort: reduced level of post-activity related discomfort

## C[C@@H]1CN(Cc2ccc(F)cc2)[C@@H](C)CN1C(=O)c1cc2c(C(=O)C(=O)N3CCOCC3)cn(C)c2cc1Cl [SJ]
[2]; [9]
  IC50: < 5 nM
[8]
  recovery after Cesarean section: recovers more rapidly from the procedure

## COc1cc2[nH]cc(C(=O)C(=O)N3CCOCC3)c2cc1C(=O)N1CCC(Cc2ccc(F)cc2)CC1 [SK]
[2]; [9]
  IC50: < 5 nM
[8]
  recovery after Cesarean section: recovers more rapidly from the procedure

## Cc1[nH]c2cc(Cl)c(C(=O)N3CCC(Cc4ccc(F)cc4)CC3)cc2c1C(=O)C(=O)N1CCN(C)CC1 [SL]
[2]; [9]
  IC50: < 5 nM
[8]
  recovery after Cesarean section: recovers more rapidly from the procedure

## COc1cc2c(cc1C(=O)N1CCC(=Cc3ccc(F)cc3)CC1)c(C(=O)C(=O)N(C)C)cn2C [SM]
[2]; [9]
  IC50: < 5 nM
[7]
  post-activity related discomfort: reduced level of post-activity related discomfort

## COc1ccc2c(c1)c(CC(=O)O)c(C)n2C(=O)c1ccc(Cl)cc1 [indomethacin, reference compound]
[3]; Example 2, oral 10 mg/kg, 2 hours
  paw withdrawal threshold: 180 ± 21 g
[3]; Example 2, oral 10 mg/kg, 4 hours
  paw withdrawal threshold: 188 ± 17 g
[3]; Example 3, oral 10 mg/kg, 4 hours
  paw withdrawal threshold: 177 ± 16 g
[4]; Example 2, 10 mg/kg p.o., 2 hours post-carrageenan
  increase of withdrawal latency: not significant
[4]; Example 2, 10 mg/kg p.o., 4 hours
  withdrawal latency: 12.5 ± 1.4 s
[4]; Example 3, 10 mg/kg p.o., 2 hours
  withdrawal latency: 13.1 ± 0.9 s
[4]; Example 3, 10 mg/kg p.o., 4 hours
  withdrawal latency: 9.3 ± 1.3 s
